Experimental data reported in the NIST ThermoML archive (doi:10.1021/acs.jced.9b00327).

Experiment: mn = molality of the nth substance listed, in mol/kg
Conditions: 100 kPa, Liquid; for speed of sound: Single path-length method; for mass density: Vibrating tube method

NCCCC(=O)O [4-aminobutanoic acid] + O
Conditions | mass density [kg/m3] | speed of sound [m/s]
293.15 K, m1 = 0.09972 | 1000.99 | 1491.4
293.15 K, m1 = 0.1479 | 1002.31 | 1495.4
293.15 K, m1 = 0.1942 | 1003.57 | 1499.3
293.15 K, m1 = 0.2449 | 1004.94 | 1503.5
293.15 K, m1 = 0.2937 | 1006.23 | 1507.6
293.15 K, m1 = 0.3452 | 1007.58 | 1511.8
293.15 K, m1 = 0.3928 | 1008.82 | 1515.7
298.15 K, m1 = 0.09972 | 999.771 | 1505
298.15 K, m1 = 0.1479 | 1001.05 | 1508.9
298.15 K, m1 = 0.1942 | 1002.26 | 1512.7
298.15 K, m1 = 0.2449 | 1003.56 | 1516.8
298.15 K, m1 = 0.2937 | 1004.78 | 1520.7
298.15 K, m1 = 0.3452 | 1006.04 | 1524.8
298.15 K, m1 = 0.3928 | 1007.19 | 1528.7
303.15 K, m1 = 0.09972 | 998.354 | 1517
303.15 K, m1 = 0.1479 | 999.634 | 1520.8
303.15 K, m1 = 0.1942 | 1000.85 | 1524.4
303.15 K, m1 = 0.2449 | 1002.16 | 1528.4
303.15 K, m1 = 0.2937 | 1003.41 | 1532.2
303.15 K, m1 = 0.3452 | 1004.71 | 1536.2
303.15 K, m1 = 0.3928 | 1005.89 | 1539.9
308.15 K, m1 = 0.09972 | 996.682 | 1527.4
308.15 K, m1 = 0.1479 | 997.926 | 1531.1
308.15 K, m1 = 0.1942 | 999.104 | 1534.6
308.15 K, m1 = 0.2449 | 1000.37 | 1538.5
308.15 K, m1 = 0.2937 | 1001.56 | 1542.1
308.15 K, m1 = 0.3452 | 1002.8 | 1546
308.15 K, m1 = 0.3928 | 1003.92 | 1549.6
313.15 K, m1 = 0.09972 | 994.848 | 1536.3
313.15 K, m1 = 0.1479 | 996.089 | 1539.8
313.15 K, m1 = 0.1942 | 997.262 | 1543.2
313.15 K, m1 = 0.2449 | 998.525 | 1547
313.15 K, m1 = 0.2937 | 999.722 | 1550.5
313.15 K, m1 = 0.3452 | 1000.96 | 1554.3
313.15 K, m1 = 0.3928 | 1002.08 | 1557.8
318.15 K, m1 = 0.09972 | 992.851 | 1543.7
318.15 K, m1 = 0.1479 | 994.097 | 1547.1
318.15 K, m1 = 0.1942 | 995.285 | 1550.4
318.15 K, m1 = 0.2449 | 996.567 | 1554
318.15 K, m1 = 0.2937 | 997.781 | 1557.5
318.15 K, m1 = 0.3452 | 999.045 | 1561.1
318.15 K, m1 = 0.3928 | 1000.2 | 1564.5
